According to US7687502B2, “Substituted quinazoline or pyridopyrimidine derivative” (Banyu Pharmaceutical Co., Ltd., priority 2004, dated 2010):

Target: T1, Recombinant human liver GK (Homo sapiens, UniProt P35557)
T1 construct: made in house; host or cells: E. coli
T1 sequence (P35557 1-466 isoform P35557-2): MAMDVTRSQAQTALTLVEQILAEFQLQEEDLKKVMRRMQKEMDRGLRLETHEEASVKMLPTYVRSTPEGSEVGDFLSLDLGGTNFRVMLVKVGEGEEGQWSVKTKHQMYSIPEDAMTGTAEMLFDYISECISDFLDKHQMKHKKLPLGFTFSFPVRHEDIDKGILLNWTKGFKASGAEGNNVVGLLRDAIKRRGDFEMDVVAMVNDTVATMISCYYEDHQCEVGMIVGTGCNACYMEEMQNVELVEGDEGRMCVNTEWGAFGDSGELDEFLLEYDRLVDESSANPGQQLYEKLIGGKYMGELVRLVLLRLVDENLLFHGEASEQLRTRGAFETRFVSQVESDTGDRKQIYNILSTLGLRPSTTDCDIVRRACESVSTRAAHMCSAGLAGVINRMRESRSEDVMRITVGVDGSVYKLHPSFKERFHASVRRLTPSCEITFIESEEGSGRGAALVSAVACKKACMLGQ
Assay: Glucokinase activating action (G6PDH-coupled thio-NADH absorbance assay)
Format: biochemical
Conditions: GK activating ability, final glucose concentration 2.5 mM, 30° C.; for Emax: OD of DMSO control defined as 100%
Method: Glucokinase activating ability was measured using the compound of the present invention.
Measurement of an excellent glucokinase activating action of the compounds represented by the aforementioned formula (I) is able to be carried out by a method mentioned in literatures such as Diabetes, vol. 45, pages 1671 to 1677 (1996) or a method similar thereto.
Recombinant human liver GK used in this assay was expressed in E. coli as FLAG fusion protein and purified by ANTIFLAG M2 AFFINITY GEL (Sigma).
The assay was conducted at 30° C. using a flat-bottom 96-well plate. An assay buffer (25 mM Hepes Buffer: pH=7.2; 2 mM MgCl2, 1 mM ATP, 0.5 mM TNAD and 1 mM dithiothreitol) (69 μl) was dispensed and 1 μl of a solution of a compound in DMSO or DMSO (as a control) was added. After that, 20 μl of an enzyme mixture (FLAG-GK, 20 U/ml G6PDH) cooled in ice was added, then 10 μl of 25 mM glucose which is a substrate was added and the reaction was started (final glucose concentration=2.5 mM).
After starting the reaction, an increase in absorbance at 405 nm was measured for 10 minutes every 30 seconds and the compound was evaluated using the increase during the first 5 minutes. FLAG-GK was added in such a manner that an increase in absorbance after 5 minutes in the presence of 1% of DMSO became between 0.05 and 0.1.
OD value in the case of DMSO control was defined as 100% and OD values in various concentrations of the compound to be evaluated were measured. From the OD values in various concentrations, Emax (%) and EC50 (μM) were calculated and used as indexes of GK activating ability of the compound.

Row | SMILES | Emax | EC50
1 | FCC(CF)Oc1ccc2ncnc(Nc3nc4cccnc4s3)c2c1 [Example 22, [6-(2-Fluoro-1-fluoromethyl-ethoxy)-quinazolin-4-yl]-thiazolo[5,4-b]pyridin-2-yl-amine] | 860% | 80 nM
2 | c1cnc2sc(Nc3ncnc4ccc(Sc5nnc[nH]5)nc34)nc2c1 [Example 31] | – | 90 nM
3 | c1cnc2sc(Nc3ncnc4ccc(Sc5nnc[nH]5)cc34)nc2c1 [Example 1, [6-(4H-[1,2,4]Triazol-3-ylsulfanyl)-quinazolin-4-yl]-thiazolo[5,4-b]pyridin-2-yl-amine] | 1000% | 180 nM
